Measured values as given in patent US20060281771A1, “SYNERGISTIC MODULATION OF FLT3 KINASE USING AMINOQUINOLINE AND AMINOQUINAZOLINE KINASE MODULATORS” (priority 2005, published 2006).

Legend:
[1] = system: MV4-11 cells; test: Inhibition of MV4-11 cell proliferation (CellTiterGlo, 72 h); format: cell-based; settings: Homo sapiens; 72 h growth inhibition
Procedure: To assess the cellular potency of the FLT3 inhibitors of Formula I′, FLT3 specific growth inhibition was measured in the leukemic cell line MV4-11 (ATCC Number: CRL-9591). […] MV4-11 cells cannot grow and survive without active FLT3ITD.
To measure proliferation inhibition by test compounds, the luciferase based CellTiterGlo reagent (Promega), which quantifies total cell number based on total cellular ATP concentration, was used. Cells are plated at 10,000 cells per well in 100 ul of in RPMI media containing penn/strep, 10% FBS and 1 ng/ml GM-CSF or 1 ng/ml IL-3 for MV4-11 and Baf3 cells respectively.
Compound dilutions or 0.1% DMSO (vehicle control) are added to cells and the cells are allowed to grow for 72 hours at standard cell growth conditions (37° C., 5% CO2). For activity measurements in MV4-11 cells grown in 50% plasma, cells were plated at 10,000 cells per well in a 1:1 mixture of growth media and human plasma (final volume of 100 μL). To measure total cell growth an equal volume of CellTiterGlo reagent was added to each well, according to the manufacturer's instructions, and luminescence was quantified. Total cell growth was quantified as the difference in luminescent counts (relative light units, RLU) of cell number at Day 0 compared to total cell number at Day 3 (72 hours of growth and/or compound treatment). One hundred percent inhibition of growth is defined as an RLU equivalent to the Day 0 reading. Zero percent inhibition was defined as the RLU signal for the DMSO vehicle control at Day 3 of growth. All data points are an average of triplicate samples. […] Inhibition and IC50 data analysis was done with GraphPad Prism using a non-linear regression fit with a multiparamater, sigmoidal dose-response (variable slope) equation.
MV4-11 cells express the FLT3 internal tandem duplication mutation, and thus are entirely dependent upon FLT3 activity for growth. […] In contrast, the Baf3 cell proliferation is driven by the cytokine IL-3 and thus are used as a non-specific toxicity control for test compounds.

[2] = target: T1, isolated kinase domain of the human FLT3 receptor (a.a. 571-993) (Homo sapiens, UniProt P36888); test: FLT3 fluorescence polarization kinase assay; format: biochemical
T1 construct: human FLT3 receptor (a.a. 571-993)
T1 sequence (P36888 571-993): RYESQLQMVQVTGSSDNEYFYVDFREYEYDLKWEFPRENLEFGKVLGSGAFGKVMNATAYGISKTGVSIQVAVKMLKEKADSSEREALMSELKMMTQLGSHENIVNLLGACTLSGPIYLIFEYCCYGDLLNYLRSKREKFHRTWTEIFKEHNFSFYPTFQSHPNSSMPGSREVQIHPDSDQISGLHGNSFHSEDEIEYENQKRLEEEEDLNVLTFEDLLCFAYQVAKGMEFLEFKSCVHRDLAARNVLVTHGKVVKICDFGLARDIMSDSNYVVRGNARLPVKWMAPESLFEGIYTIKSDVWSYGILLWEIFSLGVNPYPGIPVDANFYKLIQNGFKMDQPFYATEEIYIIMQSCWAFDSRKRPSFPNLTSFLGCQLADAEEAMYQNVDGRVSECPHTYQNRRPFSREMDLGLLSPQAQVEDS
Excerpt: The FLT3 FP assay utilizes the fluorescein-labeled phosphopeptide and the anti-phosphotyrosine antibody included in the Panvera Phospho-Tyrosine Kinase Kit (Green) supplied by Invitrogen. When FLT3 phosphorylates polyGlu4Tyr, the fluorescein-labeled phosphopeptide is displaced from the anti-phosphotyrosine antibody by the phosphorylated poly Glu4Tyr, thus decreasing the FP value. […] The kinase reaction is stopped with the addition of EDTA. The fluorescein-labeled phosphopeptide and the anti-phosphotyrosine antibody are added and incubated for 30 minutes at room temperature.
All data points are an average of triplicate samples. Inhibition and IC50 data analysis was done with GraphPad Prism using a non-linear regression fit with a multiparamater, sigmoidal dose-response (variable slope) equation.

[3] = target: T2, wild-type FLT3 phosphorylation in Baf3 FLT3 cells (Homo sapiens, UniProt P36888); test: Cell-based FLT3 receptor ELISA; settings: FLT ligand-induced FLT3 phosphorylation
T2 construct: host or cells: Baf3 (murine B cell lymphoma line)
T2 sequence (P36888 27-993): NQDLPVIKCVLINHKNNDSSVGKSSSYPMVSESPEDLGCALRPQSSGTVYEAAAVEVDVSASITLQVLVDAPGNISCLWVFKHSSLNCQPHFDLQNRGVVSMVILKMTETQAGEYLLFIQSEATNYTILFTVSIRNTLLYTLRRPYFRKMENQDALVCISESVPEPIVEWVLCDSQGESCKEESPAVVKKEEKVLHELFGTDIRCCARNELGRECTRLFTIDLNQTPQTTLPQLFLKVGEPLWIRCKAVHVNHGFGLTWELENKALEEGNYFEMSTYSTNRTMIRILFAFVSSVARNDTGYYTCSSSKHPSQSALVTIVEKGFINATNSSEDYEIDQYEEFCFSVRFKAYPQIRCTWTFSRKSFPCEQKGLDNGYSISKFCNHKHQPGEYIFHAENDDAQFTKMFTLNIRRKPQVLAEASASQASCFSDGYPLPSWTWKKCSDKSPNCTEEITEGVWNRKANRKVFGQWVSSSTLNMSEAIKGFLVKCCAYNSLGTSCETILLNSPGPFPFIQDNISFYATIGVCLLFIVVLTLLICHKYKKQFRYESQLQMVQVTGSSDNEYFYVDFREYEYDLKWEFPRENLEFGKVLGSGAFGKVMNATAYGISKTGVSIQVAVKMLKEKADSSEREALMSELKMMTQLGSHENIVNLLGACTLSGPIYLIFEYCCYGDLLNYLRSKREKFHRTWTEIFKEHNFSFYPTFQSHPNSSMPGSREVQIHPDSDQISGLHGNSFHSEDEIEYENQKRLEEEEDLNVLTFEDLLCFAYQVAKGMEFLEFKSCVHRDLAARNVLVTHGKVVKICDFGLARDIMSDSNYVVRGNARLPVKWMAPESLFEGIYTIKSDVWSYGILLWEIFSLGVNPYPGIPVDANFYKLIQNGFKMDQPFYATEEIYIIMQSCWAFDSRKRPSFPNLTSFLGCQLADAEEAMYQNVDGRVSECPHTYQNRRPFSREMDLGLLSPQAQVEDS
Procedure: Specific cellular inhibition of FLT ligand-induced wild-type FLT3 phosphorylation was measured in the following manner: Baf3 FLT3 cells overexpressing the FLT3 receptor were obtained from Dr. Michael Heinrich (Oregon Health and Sciences University). The Baf3 FLT3 cell lines were created by stable transfection of parental Baf3 cells (a murine B cell lymphoma line dependent on the cytokine IL-3 for growth) with wild-type FLT3. Cells were selected for their ability to grow in the absence of IL-3 and in the presence of FLT3 ligand.
Baf3 cells were maintained in RPMI 1640 with 10% FBS, penn/strep and 10 ng/ml FLT ligand at 37° C., 5% CO2. To measure direct inhibition of the wild-type FLT3 receptor activity and phosphorylation a sandwich ELISA method was developed similar to those developed for other RTKs (see Sadick, M D, Sliwkowski, M X, Nuijens, A, Bald, L, Chiang, N, Lofgren, J A, Wong W L T. Analysis of Heregulin-Induced ErbB2 Phosphorylation with a High-Throughput Kinase Receptor Activation Enzyme-Linked Immunsorbent Assay, Analytical Biochemistry. 1996; 235:207-214 and Baumann C A, Zeng L, Donatelli R R, Maroney A C. Development of a quantitative, high-throughput cell-based enzyme-linked immunosorbent assay for detection of colony-stimulating factor-1 receptor tyrosine kinase inhibitors. J Biochem Biophys Methods. 2004; 60:69-79.). 200 μL of Baf3FLT3 cells (1×10^6/mL) were plated in 96 well dishes in RPMI 1640 with 0.5% serum and 0.01 ng/mL IL-3 for 16 hours prior to 1 hour compound or DMSO vehicle incubation. Cells were treated with 100 ng/mL Flt ligand (R&D Systems Cat# 308-FK) for 10 min. at 37° C. Cells were pelleted, washed and lysed in 100 ul lysis buffer (50 mM Hepes, 150 mM NaCl, 10% Glycerol, 1% Triton-X-100, 10 mM NaF, 1 mM EDTA, 1.5 mM MgCl2, 10 mM NaPyrophosphate) supplemented with phosphatase (Sigma Cat# P2850) and protease inhibitors (Sigma Cat #P8340). Lysates were cleared by centrifugation at 1000×g for 5 minutes at 4° C. Cell lysates were transferred to white wall 96 well microtiter (Costar #9018) plates coated with 50 ng/well anti-FLT3 antibody (Santa Cruz Cat# sc-480) and blocked with SeaBlock reagent (Pierce Cat#37527). Lysates were incubated at 4° C. for 2 hours. Plates were washed 3× with 200 ul/well PBS/0.1% Triton-X-100. Plates were then incubated with 1:8000 dilution of HRP-conjugated anti-phosphotyrosine antibody (Clone 4G10, Upstate Biotechnology Cat#16-105) for 1 hour at room temperature. Plates were washed 3× with 200 ul/well PBS/0.1% Triton-X-100. Signal detection with Super Signal Pico reagent (Pierce Cat#37070) was done according to manufacturer's instruction with a Berthold microplate luminometer. All data points are an average of triplicate samples. […] Inhibition and IC50 data analysis was done with GraphPad Prism using a non-linear regression fit with a multiparamater, sigmoidal dose-response (variable slope) equation.

Structure (SMILES)	IC50 [1] [nM]	IC50 [2] [nM]	IC50 [3] [nM]
CC(C)c1ccc(NC(=O)OC2CCN(c3ccnc4ccccc34)CC2)cc1 [Compound 10]	1100	26	
COc1cc2ncnc(N3CCC(OC(=O)Nc4ccc(OC5CCC5)nc4)CC3)c2cc1OC [Compound 11, (6-Cyclobutoxy-pyridin-3-yl)-carbamic acid 1-(6,7-dimethoxy-quinazolin-4-yl)-piperidin-4-yl ester]	71	28	
CC(C)c1ccc(NC(=O)OC2CCN(c3ncnc4ccccc34)C2)cc1 (centres unmarked) [Compound 24, (4-Isopropyl-phenyl)-carbamic acid 1-quinazolin-4-yl-pyrrolidin-3-yl ester]	220	290	
COc1cc2ncnc(N3CC(CNC(=O)Nc4ccc(OC(C)C)cc4)C3)c2cc1OC [Compound 25, 1-[1-(6,7-Dimethoxy-quinazolin-4-yl)-azetidin-3-ylmethyl]-3-(4-isopropoxy-phenyl)-urea]	> 10000	408	
CC(C)c1ccc(NC(=O)NC2CCN(c3ccnc4ccccc34)C2)cc1 (centres unmarked) [Compound 27, (4-Isopropyl-phenyl)-3-(1-quinolin-4-yl)-pyrrolidin-3-yl-urea]	5300	457	
COc1cc2ncnc(N3CCC(C(=O)Nc4cccc(OC(C)C)c4)CC3)c2cc1OC [Compound 30, 1(-6,7-Dimethoxy-quinazolin-4-yl)-piperidine-4-carboxylic acid (3-isopropoxy-phenyl)-amide]	2310	563	
CC(C)c1ccc(NC(=O)OC2CCN(c3ccnc4ccccc34)C2)cc1 (centres unmarked) [Compound 34]	6400	1050	
COc1cc2ncc(C#N)c(N3CCC(OC(=O)Nc4ccc(OC(C)C)cc4)CC3)c2cc1OC [Compound 40, (4-Isopropoxy-phenyl)-carbamic acid 1-(3-cyano-6,7-dimethoxy-quinolin-4-yl)-piperidin-4-yl ester]		> 10000	
CC(C)c1ccc(NC(=O)NC2CCN(c3ncnc4cc(F)ccc34)C2)cc1 (centres unmarked) [Compound 69, 1-[1-(7-Fluoro-quinazolin-4-yl)-pyrrolidin-3-yl]-3-(4-isopropyl-phenyl)-urea]	128		< 1
CC(C)c1ccc(NC(=O)NC2CCN(c3ncnc4cc(OCCN5CCCC5=O)ccc34)C2)cc1 (centres unmarked) [Compound 70, 1-(4-Isopropyl-phenyl)-3-(1-{7-[2-(2-oxo-pyrrolidin-1-yl)-ethoxy]-quinazolin-4-yl}-pyrrolidin-3-yl)-urea]	21		80
COCCOc1ccc2c(N3CCC(NC(=O)Nc4ccc(C(C)C)cc4)C3)ncnc2c1 (centres unmarked) [Compound 71, 1-(4-Isopropyl-phenyl)-3-{1-[7-(2-methoxy-ethoxy)-quinazolin-4-yl]-pyrrolidin-3-yl}-urea]	1		1
CC(C)c1ccc(NC(=O)NC2CCN(c3ncnc4cc(F)ccc34)CC2)cc1 [Compound 72, 1-[1-(7-Fluoro-quinazolin-4-yl)-piperidin-4-yl]-3-(4-isopropyl-phenyl)-urea]	245		30
COCCOc1ccc2c(N3CCC(NC(=O)Nc4ccc(C(C)C)cc4)CC3)ncnc2c1 [Compound 73, 1-(4-Isopropyl-phenyl)-3-{1-[7-(2-methoxy-ethoxy)-quinazolin-4-yl]-piperidin-4-yl}-urea]	208		109
CC(C)c1ccc(NC(=O)NC2CCN(c3ncnc4cc(OCCN5CCCC5=O)ccc34)CC2)cc1 [Compound 74, 1-(4-Isopropyl-phenyl)-3-(1-{7-[2-(2-oxo-pyrrolidin-1-yl)-ethoxy]-quinazolin-4-yl}-piperidin-4-yl)-urea]	177		4
CC(C)c1ccc(NC(=O)NC2CCN(c3ncnc4cc(OCCCN5CCN(C)CC5)ccc34)CC2)cc1 [Compound 75, 1-(4-Isopropyl-phenyl)-3-(1-{7-[3-(4-methyl-piperazin-1-yl)-propoxy]-quinazolin-4-yl}-piperidin-4-yl)-urea]	1		1
